In the supplement of paper PMC12463676, “Small-molecule dissolution of stress granules by redox modulation benefits ALS models” (Nature Chemical Biology, 2025):

What was measured:
potassium arsenate = compound: O=[As]([O-])(O)O.[K+] [potassium arsenate]; assay: thermal stability z-score vs DMSO; higher = more thermally stabilized by treatment; details: HeLa; arsenate concentration 1 mM
Procedure: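 Cellular thermal proteome profiling in HeLa cells treated with 1 mM arsenate for 1 h (DMSO pretreatment), heated to ten temperatures (37-66.3 °C). Soluble protein was quantified by TMT mass spectrometry relative to DMSO controls; the thermal stability score was transformed to a z-score; mean of n = 3 experiments.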

lipoamide = compound: NC(=O)CCCCC1CCSS1 [lipoamide]; assay: as above; details: HeLa, lipoamide concentration 100 µM
Procedure: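 Cellular thermal proteome profiling in HeLa cells. Cells were treated with 100 µM lipoamide for 1 h, with or without 1 mM arsenate for a further 1 h, then heated to ten temperatures (37-66.3 °C), and soluble protein was quantified by TMT mass spectrometry relative to 0.1% DMSO controls. The thermal stability score (sum of log2 fold changes minus the abundance score) was transformed to a z-score; mean of n = 3 experiments.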

[1] = arsenate co-treatment: 1 mM arsenate 1 h
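Also: each temperature applied for 3 min, abundance score taken as mean log2 fold change at the two lowest temperatures, z-score obtained by mean subtraction and division by SD.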

Sequence of UniProt P30039 (P30039 whole entry): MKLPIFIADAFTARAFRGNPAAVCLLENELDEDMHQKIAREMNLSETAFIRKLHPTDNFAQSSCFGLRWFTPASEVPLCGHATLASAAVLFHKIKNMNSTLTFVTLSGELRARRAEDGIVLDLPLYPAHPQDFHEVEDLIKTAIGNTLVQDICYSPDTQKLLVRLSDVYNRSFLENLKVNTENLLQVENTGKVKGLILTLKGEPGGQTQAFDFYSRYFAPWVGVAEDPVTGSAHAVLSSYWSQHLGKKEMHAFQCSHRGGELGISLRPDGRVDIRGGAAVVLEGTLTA
Sequence of UniProt P22234 (P22234 whole entry): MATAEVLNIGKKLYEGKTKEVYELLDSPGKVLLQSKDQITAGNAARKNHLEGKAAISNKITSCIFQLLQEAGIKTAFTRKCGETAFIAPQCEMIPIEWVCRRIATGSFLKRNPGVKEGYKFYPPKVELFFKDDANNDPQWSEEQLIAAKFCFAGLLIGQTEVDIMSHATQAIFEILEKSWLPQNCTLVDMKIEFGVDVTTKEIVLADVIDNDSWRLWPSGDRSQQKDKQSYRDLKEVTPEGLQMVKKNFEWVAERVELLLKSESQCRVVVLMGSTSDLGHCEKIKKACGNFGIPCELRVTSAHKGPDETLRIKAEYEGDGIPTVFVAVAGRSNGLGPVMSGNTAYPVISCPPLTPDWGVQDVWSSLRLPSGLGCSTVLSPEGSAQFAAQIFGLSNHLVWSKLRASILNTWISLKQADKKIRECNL
Sequence of UniProt O75179 (O75179 whole entry): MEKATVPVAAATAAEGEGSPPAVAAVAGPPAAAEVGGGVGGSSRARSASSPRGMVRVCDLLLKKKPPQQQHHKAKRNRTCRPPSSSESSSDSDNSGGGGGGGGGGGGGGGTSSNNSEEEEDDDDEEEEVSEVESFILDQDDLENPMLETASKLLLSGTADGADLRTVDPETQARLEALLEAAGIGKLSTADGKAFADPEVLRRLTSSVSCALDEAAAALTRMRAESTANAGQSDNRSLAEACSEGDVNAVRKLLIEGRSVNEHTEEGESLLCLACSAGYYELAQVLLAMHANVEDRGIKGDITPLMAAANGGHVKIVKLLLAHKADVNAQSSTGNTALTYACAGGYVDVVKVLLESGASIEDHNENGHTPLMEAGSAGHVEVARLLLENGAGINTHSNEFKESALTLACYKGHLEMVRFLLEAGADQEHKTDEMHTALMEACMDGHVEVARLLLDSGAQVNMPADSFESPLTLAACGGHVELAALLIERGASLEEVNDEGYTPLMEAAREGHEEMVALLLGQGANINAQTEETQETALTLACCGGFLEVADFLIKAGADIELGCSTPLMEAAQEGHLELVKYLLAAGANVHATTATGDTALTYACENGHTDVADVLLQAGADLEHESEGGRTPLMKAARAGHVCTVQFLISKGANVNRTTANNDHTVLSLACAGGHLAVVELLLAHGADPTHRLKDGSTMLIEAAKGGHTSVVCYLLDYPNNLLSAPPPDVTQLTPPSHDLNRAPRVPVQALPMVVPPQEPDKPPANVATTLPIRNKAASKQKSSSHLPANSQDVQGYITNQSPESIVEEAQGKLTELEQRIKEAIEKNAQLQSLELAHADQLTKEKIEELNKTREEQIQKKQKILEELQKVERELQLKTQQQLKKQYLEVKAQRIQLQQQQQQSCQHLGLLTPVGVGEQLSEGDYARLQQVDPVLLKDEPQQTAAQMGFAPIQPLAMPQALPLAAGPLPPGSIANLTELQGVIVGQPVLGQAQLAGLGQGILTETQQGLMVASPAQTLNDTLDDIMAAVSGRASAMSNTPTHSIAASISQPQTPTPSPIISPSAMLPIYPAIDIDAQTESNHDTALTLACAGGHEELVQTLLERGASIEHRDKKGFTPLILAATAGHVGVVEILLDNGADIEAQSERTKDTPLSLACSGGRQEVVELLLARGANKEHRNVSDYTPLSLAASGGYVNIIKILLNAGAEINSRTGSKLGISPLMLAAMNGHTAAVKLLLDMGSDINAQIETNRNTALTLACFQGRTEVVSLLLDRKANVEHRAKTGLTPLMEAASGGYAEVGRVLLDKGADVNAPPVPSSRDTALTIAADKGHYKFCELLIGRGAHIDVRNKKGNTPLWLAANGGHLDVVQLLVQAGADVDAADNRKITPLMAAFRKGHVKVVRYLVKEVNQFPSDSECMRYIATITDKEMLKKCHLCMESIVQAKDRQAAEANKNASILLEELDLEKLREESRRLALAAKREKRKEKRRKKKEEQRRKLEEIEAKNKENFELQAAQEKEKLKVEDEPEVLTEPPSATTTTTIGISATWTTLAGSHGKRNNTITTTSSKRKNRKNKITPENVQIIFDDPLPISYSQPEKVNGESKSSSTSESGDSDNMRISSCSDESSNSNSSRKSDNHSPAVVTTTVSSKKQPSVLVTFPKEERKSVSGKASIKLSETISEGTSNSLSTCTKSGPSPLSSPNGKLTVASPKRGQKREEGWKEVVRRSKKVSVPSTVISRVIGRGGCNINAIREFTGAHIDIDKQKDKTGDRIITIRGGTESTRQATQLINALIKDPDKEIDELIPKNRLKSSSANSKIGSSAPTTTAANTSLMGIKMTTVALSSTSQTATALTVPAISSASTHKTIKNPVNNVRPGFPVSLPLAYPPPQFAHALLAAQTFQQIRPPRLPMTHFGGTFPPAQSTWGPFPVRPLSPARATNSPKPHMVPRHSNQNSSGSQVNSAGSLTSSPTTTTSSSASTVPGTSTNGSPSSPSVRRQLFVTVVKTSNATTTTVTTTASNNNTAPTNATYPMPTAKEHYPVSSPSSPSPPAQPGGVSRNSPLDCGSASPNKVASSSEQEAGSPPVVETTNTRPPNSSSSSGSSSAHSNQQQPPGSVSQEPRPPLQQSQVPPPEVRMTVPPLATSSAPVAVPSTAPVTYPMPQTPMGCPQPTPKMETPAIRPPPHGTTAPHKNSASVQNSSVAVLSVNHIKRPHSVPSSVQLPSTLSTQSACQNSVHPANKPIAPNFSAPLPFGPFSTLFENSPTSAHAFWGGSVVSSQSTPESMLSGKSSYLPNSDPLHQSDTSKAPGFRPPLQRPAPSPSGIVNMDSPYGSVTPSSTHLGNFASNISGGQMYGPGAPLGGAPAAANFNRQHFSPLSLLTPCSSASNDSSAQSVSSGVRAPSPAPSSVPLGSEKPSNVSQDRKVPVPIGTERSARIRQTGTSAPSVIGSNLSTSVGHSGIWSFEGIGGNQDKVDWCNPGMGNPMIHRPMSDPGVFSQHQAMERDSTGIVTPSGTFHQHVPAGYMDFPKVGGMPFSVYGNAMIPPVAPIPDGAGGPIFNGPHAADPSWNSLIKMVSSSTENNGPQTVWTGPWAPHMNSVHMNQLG
Sequence of UniProt Q9H1C7 (Q9H1C7 whole entry): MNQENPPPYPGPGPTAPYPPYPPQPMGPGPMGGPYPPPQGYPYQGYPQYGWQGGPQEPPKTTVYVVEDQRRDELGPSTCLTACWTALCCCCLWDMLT
Sequence of UniProt Q9Y446 (Q9Y446 whole entry): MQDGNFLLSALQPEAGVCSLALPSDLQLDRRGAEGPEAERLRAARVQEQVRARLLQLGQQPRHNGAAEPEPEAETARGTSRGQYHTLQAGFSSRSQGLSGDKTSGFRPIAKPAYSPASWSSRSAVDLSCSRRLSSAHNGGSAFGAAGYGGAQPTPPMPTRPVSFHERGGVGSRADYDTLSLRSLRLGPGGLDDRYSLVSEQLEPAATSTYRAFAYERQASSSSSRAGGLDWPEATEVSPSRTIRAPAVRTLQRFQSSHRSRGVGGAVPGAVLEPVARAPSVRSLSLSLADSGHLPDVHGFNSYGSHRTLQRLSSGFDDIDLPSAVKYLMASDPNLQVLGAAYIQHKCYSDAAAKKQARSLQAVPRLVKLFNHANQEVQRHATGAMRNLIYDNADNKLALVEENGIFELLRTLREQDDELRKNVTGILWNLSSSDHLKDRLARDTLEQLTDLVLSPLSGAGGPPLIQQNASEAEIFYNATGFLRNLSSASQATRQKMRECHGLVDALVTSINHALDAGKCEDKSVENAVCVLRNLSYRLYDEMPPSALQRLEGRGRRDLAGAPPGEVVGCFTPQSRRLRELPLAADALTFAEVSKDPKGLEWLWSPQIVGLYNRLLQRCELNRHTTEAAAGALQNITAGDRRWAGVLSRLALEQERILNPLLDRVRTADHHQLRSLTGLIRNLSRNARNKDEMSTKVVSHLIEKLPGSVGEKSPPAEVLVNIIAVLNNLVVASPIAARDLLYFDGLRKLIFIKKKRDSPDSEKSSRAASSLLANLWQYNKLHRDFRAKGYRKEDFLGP
Sequence of UniProt Q15181 (Q15181 whole entry): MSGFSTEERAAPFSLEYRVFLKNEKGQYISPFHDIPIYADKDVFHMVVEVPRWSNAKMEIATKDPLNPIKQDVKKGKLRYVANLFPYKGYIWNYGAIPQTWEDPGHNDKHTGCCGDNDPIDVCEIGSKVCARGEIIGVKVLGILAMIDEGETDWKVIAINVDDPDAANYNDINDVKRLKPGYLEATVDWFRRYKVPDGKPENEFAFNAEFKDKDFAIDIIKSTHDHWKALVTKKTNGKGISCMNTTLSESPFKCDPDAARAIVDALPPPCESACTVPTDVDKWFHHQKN
Sequence of UniProt Q9H7B4 (Q9H7B4 whole entry): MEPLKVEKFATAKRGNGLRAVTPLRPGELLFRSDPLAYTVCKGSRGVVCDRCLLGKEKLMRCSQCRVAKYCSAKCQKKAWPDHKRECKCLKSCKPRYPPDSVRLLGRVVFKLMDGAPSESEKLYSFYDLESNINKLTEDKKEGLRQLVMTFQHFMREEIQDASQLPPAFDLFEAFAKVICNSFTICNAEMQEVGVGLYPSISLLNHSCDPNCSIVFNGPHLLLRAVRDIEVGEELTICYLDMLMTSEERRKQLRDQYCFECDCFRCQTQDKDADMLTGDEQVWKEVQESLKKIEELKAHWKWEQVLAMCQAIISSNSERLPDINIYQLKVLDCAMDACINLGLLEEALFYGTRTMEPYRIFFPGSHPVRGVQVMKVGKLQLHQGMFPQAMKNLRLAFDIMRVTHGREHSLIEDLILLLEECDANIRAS

Target	thermal stability z-score (potassium arsenate)	thermal stability z-score (lipoamide; [1])	thermal stability z-score (lipoamide; arsenate co-treatment: none)
MAT2A (UniProt P31153)	0.337	-0.418	-0.422
EIF4G2 (UniProt P78344)	0.233	-0.0525	0.548
PAICS (UniProt P22234)	-0.0525	0.653	0.549
DNAJB12 (UniProt Q9NXW2)	0.182	-0.267	-0.124
NEMP1 (UniProt O14524)	0.154	-0.805	-0.823
BICD1 (UniProt Q96G01)	-1.74	-1.17	-1.22
MGLL (UniProt Q99685)	-0.132	0.592	0.117
BTF3 (UniProt P20290)	0.076	0.457	0.48
KIAA0586 (UniProt Q9BVV6)	-0.133	0.234	0.264
AMPD2 (UniProt Q01433)	0.172	0.297	-0.25
ASAH1 (UniProt Q13510)	0.065	-0.162	-0.738
RPE (UniProt Q96AT9)	-0.0195	0.536	0.285
ANO10 (UniProt Q9NW15)	-0.262	-0.0281	-0.122
DCUN1D1 (UniProt Q96GG9)	0.0368	-0.437	-0.535
NDUFB10 (UniProt O96000)	0.18	-0.509	-0.759
YAP1 (UniProt P46937)	0.0991	0.509	0.727
NAMPT (UniProt P43490)	-0.494	0.551	0.0412
UBE2G2 (UniProt P60604)	0.643	0.327	0.813
TOP2B (UniProt Q02880)	-0.788	0.61	0.212
NDUFS1 (UniProt P28331)	0.842	0.106	0.134
FNBP4 (UniProt Q8N3X1)	-0.51	0.826	1.2
EEF2 (UniProt P13639)	-0.39	-0.0517	0.0227
PRKAR1A (UniProt P10644)	-0.065	-0.101	0.167
MRPL47 (UniProt Q9HD33)	0.268	-0.428	-0.0176
SMYD3 (UniProt Q9H7B4)	-0.25	-0.135	-0.101
SNX33 (UniProt Q8WV41)	-0.148	-0.136	0.0586
PPIB (UniProt P23284)	0.559	-3.74	-2.72
DDX59 (UniProt Q5T1V6)	-1.01	-0.512	-0.363

Target	thermal stability z-score (potassium arsenate)	thermal stability z-score (lipoamide; [1])	thermal stability z-score (lipoamide; arsenate co-treatment: none)
THEM6 (UniProt Q8WUY1)	0.723	0.308	0.289
MST1R (UniProt Q04912)	-0.0232	-0.0878	0.0193
PPA1 (UniProt Q15181)	-0.342	1.07	0.424
NR4A1 (UniProt P22736)	0.179	0.000871	0.0723
KCTD3 (UniProt Q9Y597)	-0.15	0.366	0.263
TRIM33 (UniProt Q9UPN9)	-0.3	0.838	1.24
AES (UniProt Q08117)	0.378	0.656	0.111
SH3GL2 (UniProt Q99962)	0.00309	0.272	0.622
RPL7L1 (UniProt Q6DKI1)	-0.203	0.203	0.0421
FASTKD1 (UniProt Q53R41)	-0.324	-0.195	-0.378
PBLD (UniProt P30039)	-0.578	-0.0252	-0.218
ELAVL2 (UniProt Q12926)	-0.564	-0.19	-0.197
MCM5 (UniProt P33992)	2.47	-0.676	-0.191
MB21D1 (UniProt Q8N884)	0.109	0.409	0.258
IFT81 (UniProt Q8WYA0)	-0.072	-0.223	-0.039
TBC1D22A (UniProt Q8WUA7)	-1.19	-1.16	-0.15
FASTKD2 (UniProt Q9NYY8)	0.445	-0.22	0.158
GOLGA4 (UniProt Q13439)	0.774	-0.45	0.00058
PKP3 (UniProt Q9Y446)	0.191	-0.116	0.603
TTC1 (UniProt Q99614)	-0.104	-0.0842	0.337
SLC35B2 (UniProt Q8TB61)	0.579	-0.113	-0.134
R3HCC1 (UniProt Q9Y3T6)	-0.101	0.183	0.233
ANKRD17 (UniProt O75179)	-0.27	-0.568	-0.123
CYSTM1 (UniProt Q9H1C7)	-1.22	-0.79	0.912
MRE11A (UniProt P49959)	-0.619	0.729	0.164
DLAT (UniProt P10515)	-11.2	-2.72	-0.583
SPTBN1 (UniProt Q01082)	-1.61	0.502	0.309
